Test results as given in patent US20120196899A1, “METHODS AND PRODUCTS FOR TREATING INFLAMMATION” (Rock Creek Pharmaceuticals, Inc., priority 2010, published 2012).
Values joined by “and” are separate entries in the source; they are usually repeats but may differ in a detail not shown here. Identical values can stand only once.

Assay: Clinical chemistry, day 15
Type: in vivo, Sprague-Dawley rats
Source text: On day 15, urine was collected on all surviving animals for urinalysis. The animals were euthanized and bled via cardiac puncture. Blood was collected for hematology, clinical chemistry, and coagulation analysis. Tissues were collected, weighed, and stored in 10% neutral-buffered formalin for possible future analysis.

[1] = anatabine 0.75 mg/kg, female rats, individual animals
[2] = anatabine 0.75 mg/kg, male rats, individual animals

Which results are given for `C1=CCC(c2cccnc2)NC1` (racemic) [Anatabine, 1,2,3,6-tetrahydro-[2,3′]bipyridinyl]?
AST [1]: 95 IU/L and 69 IU/L and 76 IU/L and 54 IU/L and 72 IU/L; BUN [1]: 15 mg/dL (3×) and 16 mg/dL (2×); CHLORIDE [1]: 97 mEq/L (2×) and 96 mEq/L and 99 mEq/L and 101 mEq/L; CHOLESTEROL [1]: 66 mg/dL and 64 mg/dL and 63 mg/dL and 69 mg/dL and 87 mg/dL; CREATININE [1]: 0.5 mg/dL (2×) and 0.4 mg/dL (3×); DIR BILIRUBIN [1]: 0 mg/dL; GLOBULIN [1]: 2.7 g/dL and 3 g/dL (2×); GLUCOSE [1]: 237 mg/dL and 247 mg/dL and 217 mg/dL; PHOSPHORUS [1]: 9.7 mg/dL and 7.7 mg/dL and 9.6 mg/dL and 9.2 mg/dL and 7 mg/dL; POTASSIUM [1]: 5.5 mEq/L and 5.9 mEq/L and 6 mEq/L and 5.7 mEq/L and 6.3 mEq/L; SODIUM [1]: 145 mEq/L (2×) and 144 mEq/L (2×) and 147 mEq/L; TOT BILIRUBIN [1]: 0 mg/dL; TOT PROTEIN [1]: 6.3 g/dL (2×) and 6.2 g/dL and 6.6 g/dL and 6.5 g/dL; ALBUMIN [2]: 3.4 g/dL (2×) and 3.1 g/dL and 3.2 g/dL and 3.3 g/dL; ALK PHOSPHATASE [2]: 479 IU/L and 297 IU/L and 325 IU/L and 337 IU/L and 416 IU/L; ALT [2]: 75 IU/L and 57 IU/L and 65 IU/L and 50 IU/L and 87 IU/L; AST [2]: 103 IU/L and 66 IU/L and 97 IU/L and 90 IU/L and 92 IU/L; BUN [2]: 15 mg/dL and 18 mg/dL and 12 mg/dL and 17 mg/dL and 21 mg/dL; CHLORIDE [2]: 98 mEq/L and 99 mEq/L (2×) and 100 mEq/L and 97 mEq/L; CHOLESTEROL [2]: 69 mg/dL (2×) and 60 mg/dL and 54 mg/dL and 62 mg/dL; CREATININE [2]: 0.4 mg/dL (3×) and 0.3 mg/dL (2×); DIR BILIRUBIN [2]: 0 mg/dL (4×) and 0.1 mg/dL; GLOBULIN [2]: 2.6 g/dL and 2.7 g/dL and 2.9 g/dL; GLUCOSE [2]: 222 mg/dL and 160 mg/dL and 198 mg/dL; PHOSPHORUS [2]: 11 mg/dL and 10.7 mg/dL and 10 mg/dL and 10.6 mg/dL; POTASSIUM [2]: 6.3 mEq/L (2×) and 5.4 mEq/L and 6 mEq/L and 6.6 mEq/L; SODIUM [2]: 147 mEq/L and 150 mEq/L; TOT BILIRUBIN [2]: 0 mg/dL (4×) and 0.1 mg/dL; TOT PROTEIN [2]: 6.2 g/dL and 5.7 g/dL and 5.9 g/dL and 6.1 g/dL and 6.3 g/dL; albumin levels (anatabine: males 0.75 and […], females 0.1 and 0.75 mg/kg): slight increases in albumin levels; ALBUMIN (female, 0.1 mg/kg, group mean): 3.62 g/dL; ALK PHOSPHATASE (female, 0.1 mg/kg, group mean): 248.40 IU/L; ALT (female, 0.1 mg/kg, group mean): 49.60 IU/L; AST (female, 0.1 mg/kg, group mean): 77.00 IU/L; DIR BILIRUBIN (female, 0.1 mg/kg, group mean): 0.00 mg/dL; GLOBULIN (female, 0.1 mg/kg, group mean): 3.02 g/dL; TOT BILIRUBIN (female, 0.1 mg/kg, group mean): 0.00 mg/dL; TOT PROTEIN (female, 0.1 mg/kg, group mean): 6.64 g/dL; ALBUMIN (female, 0.75 mg/kg, group mean): 3.52 g/dL; ALK PHOSPHATASE (female, 0.75 mg/kg, group mean): 158.00 IU/L; ALT (female, 0.75 mg/kg, group mean): 54.60 IU/L; AST (female, 0.75 mg/kg, group mean): 73.20 IU/L; BUN (female, 0.75 mg/kg, group mean): 15.40 mg/dL; DIR BILIRUBIN (female, 0.75 mg/kg, group mean): 0.00 mg/dL; GLOBULIN (female, 0.75 mg/kg, group mean): 2.86 g/dL; TOT BILIRUBIN (female, 0.75 mg/kg, group mean): 0.00 mg/dL; TOT PROTEIN (female, 0.75 mg/kg, group mean): 6.38 g/dL; ALBUMIN (male, 0.1 mg/kg, group mean): 3.24 g/dL; ALK PHOSPHATASE (male, 0.1 mg/kg, group mean): 407.40 IU/L; ALT (male, 0.1 mg/kg, group mean): 70.60 IU/L; AST (male, 0.1 mg/kg, group mean): 96.00 IU/L; BUN (male, 0.1 mg/kg, group mean): 18.00 mg/dL; DIR BILIRUBIN (male, 0.1 mg/kg, group mean): 0.00 mg/dL; GLOBULIN (male, 0.1 mg/kg, group mean): 2.86 g/dL; TOT BILIRUBIN (male, 0.1 mg/kg, group mean): 0.00 mg/dL; TOT PROTEIN (male, 0.1 mg/kg, group mean): 6.10 g/dL; ALBUMIN (male, 0.75 mg/kg, group mean): 3.28 g/dL; ALK PHOSPHATASE (male, 0.75 mg/kg, group mean): 370.80 IU/L; ALT (male, 0.75 mg/kg, group mean): 66.80 IU/L; AST (male, 0.75 mg/kg, group mean): 89.60 IU/L; DIR BILIRUBIN (male, 0.75 mg/kg, group mean): 0.02 mg/dL; TOT BILIRUBIN (male, 0.75 mg/kg, group mean): 0.02 mg/dL; TOT PROTEIN (male, 0.75 mg/kg, group mean): 6.04 g/dL; globulins (males, all anatabine dose levels, nicotine 0.75 mg/kg): marginally higher
